Experimental data from PubChem BioAssay AID2060624 (Molecular Pharmacology Branch, DTP, NCI, 2025).

Test system: 217524-143-R1-J4-PDC spheroids with HUVEC/MSC, viability
Experiment: Anticancer human tumor 217524-143-R1-J4-PDC patient-derived pancreatic carcinoma cell line growth inhibition [CLK]
Conditions: for IC50: curve of first compound; for viability, T/C: stronger effect = lower value; active = viability on the fitted dose curve at most 10% of control; inactive = the rest
Source text: A high-throughput screen of multi-cell type tumor spheroids was designed to identify active combinations of […] and targeted small molecules. Complex spheroids include a stromal component modeled by human endothelial cells (HUVEC) and fibroblasts modeled by human mesenchymal stem cells (MSCs). The concentration ranges selected for each drug and investigational agent were based upon clinically achievable concentrations if the clinical Cmax of the agent was known.
Compounds. The drugs and investigational agents: cirtuvivint (SM08502; NSC835563), CC-671 (NSC850746), vemurafenib (NSC761431), tapotoclax (NSC804041), sotorasib (NSC818433), adagrasib (NSC831453), MRTX-1133 (NSC836407), BAY2416964 (NSC825713), copanlisib (NSC816437), inavolisib (NSC800729), abemaciclib (NSC768073), osimertinib (NSC779217), entinostat (NSC756642), eltanexor (KPT-8602, NSC794443), venetoclax (NSC766270), ceralasertib (NSC777638), bortezomib (NSC756655), olaparib (NSC753686), talazoparib (NSC767125), alisertib (NSC759677), peposertib (NSC802822), gemcitabine (NSC613327), 5-fluorouracil (NSC19893), SN-38 (NSC673596), oxaliplatin (NSC266046), paclitaxel (NSC125973), and doxorubicin (NSC123127), were obtained from the National Cancer Institute (NCI) Developmental Therapeutics Program Chemical Repository. The FDA-approved anticancer drug set is available from the Developmental Therapeutics Program at https://dtp.cancer.gov/organization/dscb/obtaining/available plates.htm. […] The stock solutions were prepared in dimethyl sulfoxide (DMSO, Sigma-Aldrich, St. Louis, MO, cat. D2650), except for the platinum complexes which were prepared in saline (Quality Biological, Gaithersburg, MD, cat. 114-055-101), at 800-fold the tested concentration and stored at -70 degrees C prior to their use. All drugs and investigational agents were tested over a range starting from a high concentration at or near the clinical Cmax and decreasing in half-log increments. If the clinical Cmax for an agent had not been determined, the highest concentration tested was 10 microM.
Cell Culture. All cells were maintained in an incubator at 37 degrees C and 5% CO2 with 95% humidity. The PDC lines were cultured according to standard operating procedures established by the NCI PDMR. Briefly, all PDCs were thawed and cultured in Matrigel-coated flasks prepared with a working solution of 1X Ham's F-12 nutrient mix, without supplementation (Invitrogen, Waltham, MA, cat. 11765054), 100 U/mL penicillin-streptomycin (Invitrogen, cat. 15140122), and 2.5% Matrigel (Corning Inc., Corning, NY, cat. 354248) for the first three passages. The 947758-054-R-J2-PDC line was cultured in 6B/Colon 1A media, which includes advanced DMEM/F-12 (Thermo Fisher Scientific, cat. 12634028), 10 mM HEPES (Thermo Fisher Scientific, cat. 15630080), 1X GlutaMAX supplement (Thermo Fisher Scientific, cat. 35050061), 0.1 mg/mL primocin (InvivoGen, cat. ant-pm-2), 10% defined fetal bovine serum, heat inactivated (HyClone Laboratories Inc., cat. SH30070.03HI), 1.25 mM N-Acetyl-L-cysteine (Sigma-Aldrich, cat. A9165), 10 mM nicotinamide (Sigma-Aldrich, cat. N0636), 1X B-27 supplement (Thermo Fisher Scientific, cat. 17504044), 1X N-2 supplement (Thermo Fisher Scientific, cat. 17502048), and 10 microM Y-27632 dihydrochloride (Tocris Bioscience, cat. 1254). The 876862-298-R-J1-PDC was cultured in 6E media, which includes all 6B/Colon 1A media components plus 50% L-WRN conditioned media (ATCC, cat. CRL-3276), 50 ng/mL recombinant human EGF recombinant protein (hEGF; Thermo Fisher Scientific, cat. PHG0311), 10 ng/mL recombinant human fibroblast growth factor 10 (hGFG-10; PeproTech, cat. 100-26), 1 ng/mL recombinant human fibroblast growth factor 2 (hFGF-2; PeproTech, cat. 100-18B), and 1 µM prostaglandin E2 (PGE2; Tocris, cat. 2296). The 227483-062-R1-J1-PDC line was cultured in Panc media, containing all 6E components except hFGF-2, with the addition of 500 nM SB-431542 (Selleckchem, cat. S1067) and 10 nM gastrin (Tocris, cat. 3006). […]
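Also: spheroids exposed to agents for seven days before reading.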

C=CC(=O)Nc1cc(Nc2nccc(-c3cn(C)c4ccccc34)n2)c(OC)cc1N(C)CCN(C)C + CN1CCN(c2cc(C(=O)Nc3cc4cc(-c5cnn(C)c5)ccc4cn3)ccn2)CC1
< 0.949 nM: IC50 (second compound 0.316 µM) | IC50 (second compound 1 µM) | IC50 (second compound 3.16 µM) | IC50 (second compound 10 µM)
inactive: viability, T/C (second compound 0.0316 µM, first compound 0.000949 µM) 79.8% | viability, T/C (second compound 0.0316 µM, first compound 0.003 µM) 63.2% | viability, T/C (second compound 0.0316 µM, first compound 0.00949 µM) 82.2% | viability, T/C (second compound 0.0316 µM, first compound 0.03 µM) 72.5% | viability, T/C (second compound 0.0316 µM, first compound 0.0949 µM) 56% | viability, T/C (second compound 0.0316 µM, first compound 0.3 µM) 32.5% | viability, T/C (second compound 0.1 µM, first compound 0.000949 µM) 57.5% | viability, T/C (second compound 0.1 µM, first compound 0.003 µM) 61.2% | viability, T/C (second compound 0.1 µM, first compound 0.00949 µM) 61.9% | viability, T/C (second compound 0.1 µM, first compound 0.03 µM) 47.2% | viability, T/C (second compound 0.1 µM, first compound 0.0949 µM) 39.5% | viability, T/C (second compound 0.1 µM, first compound 0.3 µM) 24.8% | viability, T/C (second compound 0.316 µM, first compound 0.000949 µM) 25.4% | viability, T/C (second compound 0.316 µM, first compound 0.003 µM) 27.2% | viability, T/C (second compound 0.316 µM, first compound 0.00949 µM) 22.9% | viability, T/C (second compound 0.316 µM, first compound 0.03 µM) 22.5% | viability, T/C (second compound 0.316 µM, first compound 0.0949 µM) 19% | viability, T/C (second compound 0.316 µM, first compound 0.3 µM) 12.6%
127 nM: IC50 (second compound 0.0316 µM)
32.5 nM: IC50 (second compound 0.1 µM)
active: viability, T/C (second compound 1 µM, first compound 0.000949 µM) 2.17% | viability, T/C (second compound 1 µM, first compound 0.003 µM) 2.28% | viability, T/C (second compound 1 µM, first compound 0.00949 µM) 1.87% | viability, T/C (second compound 1 µM, first compound 0.03 µM) 1.61% | viability, T/C (second compound 1 µM, first compound 0.0949 µM) 1.64% | viability, T/C (second compound 1 µM, first compound 0.3 µM) 0.9% | viability, T/C (second compound 3.16 µM, first compound 0.000949 µM) 1.11% | viability, T/C (second compound 3.16 µM, first compound 0.003 µM) 0.99% | viability, T/C (second compound 3.16 µM, first compound 0.00949 µM) 1.06% | viability, T/C (second compound 3.16 µM, first compound 0.03 µM) 0.81% | viability, T/C (second compound 3.16 µM, first compound 0.0949 µM) 1.04% | viability, T/C (second compound 3.16 µM, first compound 0.3 µM) 0.71% | viability, T/C (second compound 10 µM, first compound 0.000949 µM) 0.22% | viability, T/C (second compound 10 µM, first compound 0.003 µM) 0.25% | viability, T/C (second compound 10 µM, first compound 0.00949 µM) 0.25% | viability, T/C (second compound 10 µM, first compound 0.03 µM) 0.26% | viability, T/C (second compound 10 µM, first compound 0.0949 µM) 0.27% | viability, T/C (second compound 10 µM, first compound 0.3 µM) 0.25%

Nc1ccccc1NC(=O)c1ccc(CNC(=O)OCc2cccnc2)cc1 + CN1CCN(c2cc(C(=O)Nc3cc4cc(-c5cnn(C)c5)ccc4cn3)ccn2)CC1
1980 nM: IC50 (second compound 0.1 µM)
3750 nM: IC50 (second compound 0.0316 µM)
inactive: viability, T/C (second compound 0.0316 µM, first compound 0.0316 µM) 84.2% | viability, T/C (second compound 0.0316 µM, first compound 0.1 µM) 84.9% | viability, T/C (second compound 0.0316 µM, first compound 0.316 µM) 80.2% | viability, T/C (second compound 0.0316 µM, first compound 1 µM) 66.5% | viability, T/C (second compound 0.0316 µM, first compound 3.16 µM) 57.4% | viability, T/C (second compound 0.0316 µM, first compound 10 µM) 23.1% | viability, T/C (second compound 0.1 µM, first compound 0.0316 µM) 65.5% | viability, T/C (second compound 0.1 µM, first compound 0.1 µM) 61.1% | viability, T/C (second compound 0.1 µM, first compound 0.316 µM) 63.5% | viability, T/C (second compound 0.1 µM, first compound 1 µM) 60.8% | viability, T/C (second compound 0.1 µM, first compound 3.16 µM) 42.6% | viability, T/C (second compound 0.1 µM, first compound 10 µM) 19.9% | viability, T/C (second compound 0.316 µM, first compound 0.0316 µM) 18.9% | viability, T/C (second compound 0.316 µM, first compound 0.1 µM) 20.2% | viability, T/C (second compound 0.316 µM, first compound 0.316 µM) 27.3% | viability, T/C (second compound 0.316 µM, first compound 1 µM) 39.2% | viability, T/C (second compound 0.316 µM, first compound 3.16 µM) 28.9% | viability, T/C (second compound 0.316 µM, first compound 10 µM) 5.46%
< 31.6 nM: IC50 (second compound 0.316 µM) | IC50 (second compound 1 µM) | IC50 (second compound 3.16 µM) | IC50 (second compound 10 µM)
active: viability, T/C (second compound 1 µM, first compound 0.0316 µM) 1.9% | viability, T/C (second compound 1 µM, first compound 0.1 µM) 1.63% | viability, T/C (second compound 1 µM, first compound 0.316 µM) 1.82% | viability, T/C (second compound 1 µM, first compound 1 µM) 1.83% | viability, T/C (second compound 1 µM, first compound 3.16 µM) 0.8% | viability, T/C (second compound 1 µM, first compound 10 µM) 0.38% | viability, T/C (second compound 3.16 µM, first compound 0.0316 µM) 0.79% | viability, T/C (second compound 3.16 µM, first compound 0.1 µM) 1.03% | viability, T/C (second compound 3.16 µM, first compound 0.316 µM) 0.98% | viability, T/C (second compound 3.16 µM, first compound 1 µM) 0.64% | viability, T/C (second compound 3.16 µM, first compound 3.16 µM) 0.44% | viability, T/C (second compound 3.16 µM, first compound 10 µM) 0.54% | viability, T/C (second compound 10 µM, first compound 0.0316 µM) 0.13% | viability, T/C (second compound 10 µM, first compound 0.1 µM) 0.21% | viability, T/C (second compound 10 µM, first compound 0.316 µM) 0.25% | viability, T/C (second compound 10 µM, first compound 1 µM) 0.2% | viability, T/C (second compound 10 µM, first compound 3.16 µM) 0.23% | viability, T/C (second compound 10 µM, first compound 10 µM) 0.3%
